Measurements published in patent US20260007681A1, “INDOLE DERIVATIVES AS ESTROGEN RECEPTOR DEGRADERS” (REGENTS OF THE UNIVERSITY OF MICHIGAN, priority 2022, published 2026).

Molecular target: ER (Homo sapiens (Human), UniProt P03372)
Assay: Western blot analysis (Compounds B1-B278)
Type: cell-based
Settings: ER degradation by traditional Western blot; DC50 classes
Procedure, shortened: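 Relative target-protein levels come from densitometry of immunoblots, normalized to GAPDH. Lysates from treated cells were prepared in RIPA buffer (pH 7.6) containing protease inhibitors, and equal protein amounts, checked by BCA, were separated on 10% gels and blotted onto PVDF.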

Sequence of ER (P03372 whole entry): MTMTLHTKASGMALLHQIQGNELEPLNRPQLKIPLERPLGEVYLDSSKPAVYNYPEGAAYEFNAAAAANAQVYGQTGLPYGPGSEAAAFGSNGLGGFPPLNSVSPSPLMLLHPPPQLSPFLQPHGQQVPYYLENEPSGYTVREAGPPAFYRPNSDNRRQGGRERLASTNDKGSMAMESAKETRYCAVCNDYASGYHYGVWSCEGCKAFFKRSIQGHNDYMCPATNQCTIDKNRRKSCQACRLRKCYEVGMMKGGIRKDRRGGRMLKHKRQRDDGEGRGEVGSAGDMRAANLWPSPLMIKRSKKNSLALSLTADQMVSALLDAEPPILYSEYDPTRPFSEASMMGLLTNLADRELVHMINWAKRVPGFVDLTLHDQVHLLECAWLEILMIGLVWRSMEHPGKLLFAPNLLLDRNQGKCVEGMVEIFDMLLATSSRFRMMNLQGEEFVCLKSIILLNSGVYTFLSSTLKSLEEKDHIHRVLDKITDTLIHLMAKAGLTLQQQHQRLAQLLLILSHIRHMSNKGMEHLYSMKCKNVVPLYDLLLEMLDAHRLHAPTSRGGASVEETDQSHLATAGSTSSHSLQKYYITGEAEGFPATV

| Traditional Western Degradation Potency | SMILES |
| --- | --- |
| C (“C”: >100 nM) | C[C@@H]1Cc2c([nH]c3ccccc23)[C@@H](c2c(F)cc(CN3CCC4(CCC(C(=O)N5Cc6cc7c(cc6C5)C(=O)N(C5CCC(=O)NC5=O)C7=O)CC4)CC3)cc2F)N1CC(F)F (stereo partly drawn) [Compound B103, 6-(3-(4-((1R,3R)-2-(2,2-difluoroethyl)-3-methyl-2,3,4,9-tetrahydro-1H-pyrido[3,4-b]indol-1-yl)-3,5-difluorobenzyl)-3-azaspiro[5.5]undecane-9-carbonyl)-2-(2,6-dioxopiperidin-3-yl)-6,7-dihydropyrrolo[3,4-f]isoindole-1,3(2H,5H)-dione] |
| A (“A”: <10 nM) | C[C@@H]1Cc2c([nH]c3ccccc23)[C@@H](c2c(F)cc(N3CCC(CN4CCC(N5Cc6cc7c(cc6C5)C(=O)N(C5CCC(=O)NC5=O)C7=O)CC4)CC3)cc2F)N1CC(F)F (stereo partly drawn) [Compound B213, 6-(1-((1-(4-((1R,3R)-2-(2,2-difluoroethyl)-3-methyl-2,3,4,9-tetrahydro-1H-pyrido[3,4-b]indol-1-yl)-3,5-difluorophenyl)piperidin-4-yl)methyl)piperidin-4-yl)-2-(2,6-dioxopiperidin-3-yl)-6,7-dihydropyrrolo[3,4-f]isoindole-1,3(2H,5H)-dione] |
| B (“B”: 10-100 nM) | C[C@@H]1Cc2c([nH]c3ccccc23)[C@@H](c2ccc(C3CCC(C(=O)N4CCC(N5Cc6cc7c(cc6C5)C(=O)N(C5CCC(=O)NC5=O)C7=O)CC4)CC3)c(F)c2)N1CC(F)F (stereo partly drawn) [Compound B239, 6-(1-(4-(4-((1R,3R)-2-(2,2-difluoroethyl)-3-methyl-2,3,4,9-tetrahydro-1H-pyrido[3,4-b]indol-1-yl)-2-fluorophenyl)cyclohexane-1-carbonyl)piperidin-4-yl)-2-(2,6-dioxopiperidin-3-yl)-6,7-dihydropyrrolo[3,4-f]isoindole-1,3(2H,5H)-dione] |
| C (“C”: >100 nM) | C[C@@H]1Cc2c([nH]c3ccccc23)[C@@H](c2c(F)cc(N3CCC(N4CC(CC(=O)N5Cc6cc7c(cc6C5)C(=O)N(C5CCC(=O)NC5=O)C7=O)C4)CC3)cc2F)N1CC(F)F (stereo partly drawn) [Compound B6, 6-(2-(1-(1-(4-((1R,3R)-2-(2,2-difluoroethyl)-3-methyl-2,3,4,9-tetrahydro-1H-pyrido[3,4-b]indol-1-yl)-3,5-difluorophenyl)piperidin-4-yl)azetidin-3-yl)acetyl)-2-(2,6-dioxopiperidin-3-yl)-6,7-dihydropyrrolo[3,4-f]isoindole-1,3(2H,5H)-dione] |
| C (“C”: >100 nM) | C[C@@H]1Cc2c([nH]c3ccccc23)[C@@H](c2c(F)cc(N3CC(CC(=O)N4Cc5cc6c(cc5C4)C(=O)N(C4CCC(=O)NC4=O)C6)C3)cc2F)N1CC(F)F (stereo partly drawn) [Compound B42, 3-(6-(2-(1-(4-((1R,3R)-2-(2,2-difluoroethyl)-3-methyl-2,3,4,9-tetrahydro-1H-pyrido[3,4-b]indol-1-yl)-3,5-difluorophenyl)azetidin-3-yl)acetyl)-1-oxo-3,5,6,7-tetrahydropyrrolo[3,4-f]isoindol-2(1H)-yl)piperidine-2,6-dione] |
| C (“C”: >100 nM) | C[C@@H]1Cc2c([nH]c3ccccc23)[C@H](c2c(F)cc(CN3CCC4(CCC(C(=O)N5Cc6cc7c(cc6C5)C(=O)N(C5CCC(=O)NC5=O)C7=O)CC4)CC3)cc2F)N1CC(F)F (stereo partly drawn) [Compound B104, 6-(3-(4-((1S,3R)-2-(2,2-difluoroethyl)-3-methyl-2,3,4,9-tetrahydro-1H-pyrido[3,4-b]indol-1-yl)-3,5-difluorobenzyl)-3-azaspiro[5.5]undecane-9-carbonyl)-2-(2,6-dioxopiperidin-3-yl)-6,7-dihydropyrrolo[3,4-f]isoindole-1,3(2H,5H)-dione] |
